One data set concerns the target T1, NagR (Bifidobacterium longum, UniProt A0ACD7UQ49).
T1 construct: gene BLIJ_0896; full-length as described, N-terminal His tag, codon-optimized synthetic gene in in-house pET-49b(+), expressed in E. coli BL21(DE3), Ni-NTA purified; tag removal not mentioned
T1 sequence (A0ACD7UQ49 36-409 limits assumed): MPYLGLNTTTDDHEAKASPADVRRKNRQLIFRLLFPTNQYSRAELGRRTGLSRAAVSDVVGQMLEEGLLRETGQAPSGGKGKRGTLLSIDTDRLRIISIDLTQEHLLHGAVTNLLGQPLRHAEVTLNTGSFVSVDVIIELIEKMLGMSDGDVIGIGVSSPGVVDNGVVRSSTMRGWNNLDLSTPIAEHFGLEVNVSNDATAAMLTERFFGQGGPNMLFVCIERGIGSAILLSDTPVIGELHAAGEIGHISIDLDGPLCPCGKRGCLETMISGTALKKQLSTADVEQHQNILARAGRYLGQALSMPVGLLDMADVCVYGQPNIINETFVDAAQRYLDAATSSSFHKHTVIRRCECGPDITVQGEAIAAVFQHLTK
The data set can be described thus: EMSA, disruption of NagR-DNA complex. In kind it is binding. Conditions: 25 nM NagR, 1 nM IRD700-labelled hmoA operator probe; pH 7.5, 50 mM KCl, 5 mM MgCl2, room temperature; effector releasing DNA. (In general: Mobility shift assays separate free from complexed probe on a gel.)

In data set [1] the test system is NagR (Bifidobacterium longum subsp. infantis ATCC 15697 (= JCM 1222)). In words: EMSA. Conditions: no robust shift even at >500 nM NagR; 10 mM Tris-HCl pH 7.5, 50 mM KCl, 5 mM MgCl2, 2.25 mM DTT, 0.125% Tween 20, 2.5% glycerol; 1 nM probe, 0-2000 nM NagR, 60 min, room temperature; 6% gel, 0.5x ….

The results in this text go back to paper PMC9599254, “Human Milk Oligosaccharide Utilization in Intestinal Bifidobacteria Is Governed by Global Transcriptional Regulator NagR” (mSystems, 2022).

By EC50 is commonly meant the concentration at which the effect is half-maximal.

A value given as a limit tells only on which side of the number the result lay.

In turn, `CC(=O)N[C@H]1[C@@H](OP(=O)(O)O)O[C@H](CO)[C@@H](O)[C@@H]1O` [GlcNAc-1P] yielded an EC50 on NagR of 490 ± 60 µM.
Same read-out and setting: the result for `CC(=O)N[C@H]1C(O)O[C@H](CO)[C@@H](O)[C@@H]1O` (stereo partly shown) [GlcNAc] reads 330 ± 50 µM.
As to “ATTTCGTCGTTGAAATTGTTATGAAACTTCACCAATAAATTCCAGTGTA (double strand) [nagB_II probe]”, the K half in data set [1] was > 500 nM.
Still for that read-out and setting: with “GGGCCTGATGCAAATATGTTAAGGCTGTTGACAGTGCTGGCTCCCGTAC (double strand) [hmoA6 probe]” the figure was > 500 nM.
